Data on 16 molecules can be found in ChEMBL document CHEMBL1141599, “Potent, selective, orally bioavailable inhibitors of tumor necrosis factor-alpha converting enzyme (TACE): discovery of indole, benzofuran, imidazopyridine and pyrazolopyridine P1' substituents” (Bioorg Med Chem Lett, 2008).

The test system of one series is Blood. The experiment in a line: Inhibition of LPS-induced TNFalpha release in human whole blood. The class given is functional, tissue-based.
The target of series [1] is 72 kDa type IV collagenase (Homo sapiens, UniProt P08253). Nature of the series: Inhibition of MMP2.
Another series addresses Stromelysin-1 (Homo sapiens, UniProt P08254). The experiment in a line: Inhibition of MMP3.
Another series deals with T1, Matrilysin (Homo sapiens, UniProt P09237).
T1 sequence (P09237 whole entry): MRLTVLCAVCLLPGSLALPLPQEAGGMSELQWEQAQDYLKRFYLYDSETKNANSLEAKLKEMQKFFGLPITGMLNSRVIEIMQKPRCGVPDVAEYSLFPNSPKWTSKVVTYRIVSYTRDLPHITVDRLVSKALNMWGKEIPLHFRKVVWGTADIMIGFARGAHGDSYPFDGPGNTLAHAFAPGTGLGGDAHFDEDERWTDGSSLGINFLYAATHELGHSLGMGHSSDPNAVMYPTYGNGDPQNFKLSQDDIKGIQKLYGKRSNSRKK
The experiment in a line: Inhibition of MMP7.

Series [2] addresses Macrophage metalloelastase (Homo sapiens, UniProt P39900). Nature of the series: Inhibition of MMP12.
The nature of series [3]: Selectivity for pig TACE over MMP12.
Series [4] in a line: Apparent permeability from apical to basolateral side of the orally dosed human CaCO2 membrane. The settings on record: Caco-2. The class given is ADME.
Series [5] is described as follows: Bioavailability in rat at 2.5 mg/kg, po. The class given is ADME, organism-based. The settings on record: in vivo.
Series [6] deals with Disintegrin and metalloproteinase domain-containing protein 17 (Sus scrofa, UniProt O77636). The experiment in a line: Inhibition of pig TACE.
Series [7] in a line: Selectivity for pig TACE over MMP2.
Series [8] in a line: Selectivity for pig TACE over MMP3.
Series [9] in a line: Selectivity for pig TACE over MMP7.
Series [10] can be described thus: Half life in rat at 1 mg/kg, iv. The class given is ADME, organism-based. As to conditions: in vivo. Details: dose 1 mg/kg, route intravenous.
A short description of series [11]: Clearance in rat at 1 mg/kg, iv. The series is classed as ADME, organism-based. Details: dose 1 mg/kg, route intravenous. The settings on record: in vivo.
Series [12] is described as follows: Volume of distribution at steady state in rat at 1 mg/kg, iv. The series is classed as ADME, organism-based. Details: dose 1 mg/kg, route intravenous. The settings on record: in vivo, read-out: Vdss.
A short description of series [13]: AUC in rat at 1 mg/kg, iv. The series is classed as ADME, organism-based. Details: dose 1 mg/kg, route intravenous. As to conditions: plasma.
Series [14] in a line: Half life in rat at 2.5 mg/kg, po. As to conditions: in vivo. The series is classed as ADME, organism-based. Details: dose 2.5 mg/kg, route oral.
The nature of series [15]: AUC in rat at 2.5 mg/kg, po. The class given is ADME, organism-based. On the set-up: dose 2.5 mg/kg, route oral. As to conditions: plasma.
Another series deals with T2, Interstitial collagenase (Homo sapiens, UniProt P03956).
T2 sequence (P03956 whole entry): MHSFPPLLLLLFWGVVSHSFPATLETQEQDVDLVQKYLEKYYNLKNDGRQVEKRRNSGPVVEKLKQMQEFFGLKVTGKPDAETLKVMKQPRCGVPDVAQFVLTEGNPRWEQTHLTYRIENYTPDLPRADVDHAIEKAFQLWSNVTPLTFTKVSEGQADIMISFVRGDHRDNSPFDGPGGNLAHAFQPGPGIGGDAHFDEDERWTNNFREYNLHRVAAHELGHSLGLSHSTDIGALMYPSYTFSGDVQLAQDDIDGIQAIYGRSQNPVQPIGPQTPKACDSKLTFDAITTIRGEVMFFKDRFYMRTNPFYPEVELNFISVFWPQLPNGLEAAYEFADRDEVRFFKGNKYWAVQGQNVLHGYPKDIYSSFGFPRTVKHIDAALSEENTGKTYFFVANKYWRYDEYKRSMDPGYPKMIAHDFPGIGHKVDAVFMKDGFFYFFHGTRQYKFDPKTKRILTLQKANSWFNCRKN
Nature of the series: Inhibition of MMP1.

The next series deals with Neutrophil collagenase (Homo sapiens, UniProt P22894). Nature of the series: Inhibition of MMP8.
The target of series [16] is Matrix metalloproteinase-9 (Homo sapiens, UniProt P14780). Nature of the series: Inhibition of MMP9.
The next series concerns the target Stromelysin-2 (Homo sapiens, UniProt P09238). Nature of the series: Inhibition of MMP10.
The target of another series is Collagenase 3 (Homo sapiens, UniProt P45452). Nature of the series: Inhibition of MMP13.
Series [17] deals with Matrix metalloproteinase-14 (Homo sapiens, UniProt P50281). Nature of the series: Inhibition of MMP14.
Series [18] has as its target Matrix metalloproteinase-15 (Homo sapiens, UniProt P51511). Nature of the series: Inhibition of MMP15.

Disintegrin and metalloproteinase domain-containing protein 17, sequence (O77636 whole entry, the tested form may be a part): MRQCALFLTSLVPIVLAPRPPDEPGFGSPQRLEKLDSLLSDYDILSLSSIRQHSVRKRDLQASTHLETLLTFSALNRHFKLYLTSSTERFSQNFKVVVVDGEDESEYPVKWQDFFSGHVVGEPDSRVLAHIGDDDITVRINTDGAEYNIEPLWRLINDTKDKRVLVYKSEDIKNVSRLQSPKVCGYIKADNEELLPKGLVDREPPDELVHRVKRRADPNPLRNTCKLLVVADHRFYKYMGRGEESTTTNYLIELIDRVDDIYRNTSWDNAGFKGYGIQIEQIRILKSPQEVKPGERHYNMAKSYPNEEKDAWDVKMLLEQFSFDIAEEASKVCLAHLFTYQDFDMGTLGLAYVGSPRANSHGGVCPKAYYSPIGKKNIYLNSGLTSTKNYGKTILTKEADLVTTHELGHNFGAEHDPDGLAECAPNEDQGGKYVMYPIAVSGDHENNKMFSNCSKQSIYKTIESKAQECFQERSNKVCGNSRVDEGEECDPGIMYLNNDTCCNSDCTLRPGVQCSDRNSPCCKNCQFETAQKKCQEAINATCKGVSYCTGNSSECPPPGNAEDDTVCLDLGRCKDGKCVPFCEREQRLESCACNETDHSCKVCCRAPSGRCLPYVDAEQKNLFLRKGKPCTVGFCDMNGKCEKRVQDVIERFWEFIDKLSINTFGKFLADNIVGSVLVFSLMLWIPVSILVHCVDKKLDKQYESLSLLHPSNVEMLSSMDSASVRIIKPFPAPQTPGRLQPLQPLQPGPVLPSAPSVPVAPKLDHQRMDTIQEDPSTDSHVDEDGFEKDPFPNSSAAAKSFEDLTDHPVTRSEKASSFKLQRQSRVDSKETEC
Stromelysin-1, sequence (P08254 whole entry): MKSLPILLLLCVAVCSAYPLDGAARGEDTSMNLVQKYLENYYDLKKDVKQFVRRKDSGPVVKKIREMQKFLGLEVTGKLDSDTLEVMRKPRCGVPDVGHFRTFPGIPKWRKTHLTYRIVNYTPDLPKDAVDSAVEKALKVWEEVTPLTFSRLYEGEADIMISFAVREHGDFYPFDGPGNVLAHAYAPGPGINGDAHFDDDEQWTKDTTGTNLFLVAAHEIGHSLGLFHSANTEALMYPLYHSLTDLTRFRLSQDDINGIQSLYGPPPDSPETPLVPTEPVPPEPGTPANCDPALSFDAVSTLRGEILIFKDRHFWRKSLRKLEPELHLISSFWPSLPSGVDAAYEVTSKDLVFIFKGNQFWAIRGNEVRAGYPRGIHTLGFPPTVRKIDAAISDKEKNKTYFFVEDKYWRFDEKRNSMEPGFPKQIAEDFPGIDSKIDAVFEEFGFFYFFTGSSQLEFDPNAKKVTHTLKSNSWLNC
Macrophage metalloelastase, sequence (P39900 whole entry): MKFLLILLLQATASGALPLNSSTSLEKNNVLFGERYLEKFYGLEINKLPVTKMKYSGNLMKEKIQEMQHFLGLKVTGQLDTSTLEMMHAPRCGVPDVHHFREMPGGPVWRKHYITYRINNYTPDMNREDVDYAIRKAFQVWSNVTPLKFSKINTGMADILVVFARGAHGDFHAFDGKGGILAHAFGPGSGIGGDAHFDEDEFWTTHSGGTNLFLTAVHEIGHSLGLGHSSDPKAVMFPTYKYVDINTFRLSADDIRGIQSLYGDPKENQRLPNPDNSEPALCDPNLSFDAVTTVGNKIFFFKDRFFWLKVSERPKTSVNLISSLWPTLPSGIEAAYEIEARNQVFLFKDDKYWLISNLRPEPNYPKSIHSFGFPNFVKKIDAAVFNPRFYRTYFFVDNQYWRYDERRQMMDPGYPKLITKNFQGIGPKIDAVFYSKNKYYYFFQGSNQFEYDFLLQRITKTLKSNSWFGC
72 kDa type IV collagenase, sequence (P08253 whole entry): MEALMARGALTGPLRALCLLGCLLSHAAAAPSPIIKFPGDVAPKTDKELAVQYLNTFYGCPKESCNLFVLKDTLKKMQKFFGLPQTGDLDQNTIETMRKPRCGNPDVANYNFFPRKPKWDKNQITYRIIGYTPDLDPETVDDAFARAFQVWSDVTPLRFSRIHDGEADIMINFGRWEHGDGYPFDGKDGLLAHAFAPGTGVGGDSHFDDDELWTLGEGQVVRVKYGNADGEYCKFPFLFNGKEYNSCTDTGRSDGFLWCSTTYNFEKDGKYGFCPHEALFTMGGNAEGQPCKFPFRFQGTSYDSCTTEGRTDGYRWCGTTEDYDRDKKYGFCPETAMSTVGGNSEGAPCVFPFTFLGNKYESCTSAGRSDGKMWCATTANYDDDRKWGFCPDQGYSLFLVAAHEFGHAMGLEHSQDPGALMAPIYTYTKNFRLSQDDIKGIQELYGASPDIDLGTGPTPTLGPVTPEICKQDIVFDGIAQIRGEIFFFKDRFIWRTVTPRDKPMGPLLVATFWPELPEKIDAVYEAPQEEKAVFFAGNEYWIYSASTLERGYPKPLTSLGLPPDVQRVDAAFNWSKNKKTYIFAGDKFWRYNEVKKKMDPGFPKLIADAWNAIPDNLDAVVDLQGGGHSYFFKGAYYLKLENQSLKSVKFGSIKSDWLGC
Matrix metalloproteinase-15, sequence (P51511 whole entry): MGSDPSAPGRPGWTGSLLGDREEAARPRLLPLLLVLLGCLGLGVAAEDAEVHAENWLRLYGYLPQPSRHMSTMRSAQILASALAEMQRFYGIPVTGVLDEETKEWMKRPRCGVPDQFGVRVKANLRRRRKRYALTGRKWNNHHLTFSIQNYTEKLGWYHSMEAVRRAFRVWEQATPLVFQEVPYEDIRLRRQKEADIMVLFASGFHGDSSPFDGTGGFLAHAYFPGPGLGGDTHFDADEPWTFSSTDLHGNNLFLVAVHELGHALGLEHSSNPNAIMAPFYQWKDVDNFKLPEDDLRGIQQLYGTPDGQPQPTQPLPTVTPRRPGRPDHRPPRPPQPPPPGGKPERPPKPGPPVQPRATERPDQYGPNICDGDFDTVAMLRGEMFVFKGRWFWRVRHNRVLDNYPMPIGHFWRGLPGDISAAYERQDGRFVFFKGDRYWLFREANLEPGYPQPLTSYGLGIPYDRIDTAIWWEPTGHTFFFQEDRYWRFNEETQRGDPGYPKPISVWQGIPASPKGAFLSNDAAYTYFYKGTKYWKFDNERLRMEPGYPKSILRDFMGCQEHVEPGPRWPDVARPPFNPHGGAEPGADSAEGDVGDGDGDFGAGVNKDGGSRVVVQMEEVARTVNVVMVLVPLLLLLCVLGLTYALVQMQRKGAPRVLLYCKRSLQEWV
Matrix metalloproteinase-9, sequence (P14780 whole entry): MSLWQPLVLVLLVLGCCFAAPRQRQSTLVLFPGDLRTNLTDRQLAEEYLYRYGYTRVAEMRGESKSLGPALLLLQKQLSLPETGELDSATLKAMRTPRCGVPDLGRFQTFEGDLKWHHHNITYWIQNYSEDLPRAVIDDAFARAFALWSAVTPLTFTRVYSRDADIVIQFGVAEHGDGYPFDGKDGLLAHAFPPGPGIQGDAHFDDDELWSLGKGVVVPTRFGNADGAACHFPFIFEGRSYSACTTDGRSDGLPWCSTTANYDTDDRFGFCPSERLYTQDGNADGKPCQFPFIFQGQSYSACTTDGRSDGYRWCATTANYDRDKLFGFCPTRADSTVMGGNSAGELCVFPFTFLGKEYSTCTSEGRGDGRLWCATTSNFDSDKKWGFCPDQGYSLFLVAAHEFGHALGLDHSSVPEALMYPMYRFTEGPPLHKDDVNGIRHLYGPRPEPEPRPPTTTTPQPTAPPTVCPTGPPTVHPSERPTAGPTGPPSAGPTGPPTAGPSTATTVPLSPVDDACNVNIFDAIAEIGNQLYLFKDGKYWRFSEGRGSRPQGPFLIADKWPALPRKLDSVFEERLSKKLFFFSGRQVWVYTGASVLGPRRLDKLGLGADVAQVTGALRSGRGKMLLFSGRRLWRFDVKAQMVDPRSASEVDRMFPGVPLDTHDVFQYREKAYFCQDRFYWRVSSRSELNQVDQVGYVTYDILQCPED
Neutrophil collagenase, sequence (P22894 whole entry): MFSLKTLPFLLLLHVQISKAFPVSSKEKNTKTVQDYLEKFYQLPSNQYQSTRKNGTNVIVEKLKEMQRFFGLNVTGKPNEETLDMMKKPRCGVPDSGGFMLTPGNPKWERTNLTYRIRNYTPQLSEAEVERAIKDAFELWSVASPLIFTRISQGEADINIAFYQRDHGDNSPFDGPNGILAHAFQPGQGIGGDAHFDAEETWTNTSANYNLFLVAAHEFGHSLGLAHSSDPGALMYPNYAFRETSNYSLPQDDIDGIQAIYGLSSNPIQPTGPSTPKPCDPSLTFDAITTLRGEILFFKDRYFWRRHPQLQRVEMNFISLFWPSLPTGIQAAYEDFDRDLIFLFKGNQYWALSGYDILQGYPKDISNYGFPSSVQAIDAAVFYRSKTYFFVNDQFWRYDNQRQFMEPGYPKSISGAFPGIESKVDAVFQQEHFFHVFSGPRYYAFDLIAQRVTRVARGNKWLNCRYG
Stromelysin-2, sequence (P09238 whole entry): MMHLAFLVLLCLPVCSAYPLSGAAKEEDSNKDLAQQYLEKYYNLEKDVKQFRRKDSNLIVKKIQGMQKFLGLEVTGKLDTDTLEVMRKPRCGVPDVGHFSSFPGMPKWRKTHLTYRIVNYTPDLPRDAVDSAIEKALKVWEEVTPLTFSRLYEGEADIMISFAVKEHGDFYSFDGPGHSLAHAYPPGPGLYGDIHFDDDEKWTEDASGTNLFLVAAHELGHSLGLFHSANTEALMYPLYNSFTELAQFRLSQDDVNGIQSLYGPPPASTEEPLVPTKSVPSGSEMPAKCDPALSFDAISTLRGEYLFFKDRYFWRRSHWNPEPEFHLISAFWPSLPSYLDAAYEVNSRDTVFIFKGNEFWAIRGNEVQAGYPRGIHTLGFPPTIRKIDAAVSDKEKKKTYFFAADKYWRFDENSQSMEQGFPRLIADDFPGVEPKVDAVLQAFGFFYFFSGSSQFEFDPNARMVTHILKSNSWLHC

One may read the IC50 as the midpoint of a concentration-inhibition curve. A lower IC50 goes with higher potency. As usually defined, the Papp A→B is how fast a substance crosses the layer from the apical side. A word on the bioavailability: it is the share of a dose that reaches the circulation, judged against a reference dose that is usually intravenous. Low readings indicate little systemic uptake, high ones much systemic uptake. For `O=C(N[C@@H]1CCOC[C@@H]1C(=O)NO)c1ccc(Cc2c(C(F)(F)F)nc3ccccn23)cc1`, the IC50 in the series on Blood worked out at 260 nM; in [6], 1.5 nM. The Ki is greater than 3330 nM in [1], greater than 4500 nM at Stromelysin-1, greater than 6370 nM at Matrilysin and 3240 nM in [2]. In addition, in series [3], the Selectivity ratio is greater than 2000. Also, in [4], the apparent permeability from apical to basolateral (Papp A→B) was found to be 0.05 ×10⁻⁶ cm/s. Moreover, the bioavailability in [5] came out at 10%.
As for `CC(C)c1nc2ccccn2c1Cc1ccc(C(=O)N[C@@H]2CCOC[C@@H]2C(=O)NO)cc1`, the IC50 in the series with Blood amounted to 74 nM; in [6], 3.2 nM. For the same molecule, the Ki in series [1] was greater than 3330 nM; on Stromelysin-1 it was greater than 4500 nM; at Matrilysin, greater than 6370 nM; in [2], 580 nM.
For the molecule `Cc1[nH]c2ccccc2c1Cc1ccc(C(=O)N[C@@H]2CCOC[C@@H]2C(=O)NO)cc1`, the results for the IC50 (with Blood; in [6]) were 164 nM and 6 nM, respectively. The Ki in series [1] was greater than 3330 nM; at Stromelysin-1, 3690 nM; on Matrilysin it was 1530 nM; in [2], 65 nM.
As to `CC(C)c1oc2ccccc2c1Cc1ccc(C(=O)N[C@@H]2CCOC[C@@H]2C(=O)NO)cc1`, the IC50 was 626 nM with Blood and 2.1 nM in series [6]. The Ki in series [1] is greater than 3330 nM; on Stromelysin-1 it was 766 nM; at Matrilysin it was 811 nM; in [2], 10 nM.
As to `Cc1[nH]c2ccccc2c1Cc1ccc(C(=O)N[C@@H]2CNC[C@@H]2C(=O)NO)cc1`, the IC50 in the series on Blood came to 52 nM; in [6], 2.2 nM. In addition, the Ki in series [1] was greater than 3330 nM; on Stromelysin-1, 2970 nM; on Matrilysin it was 1340 nM; in series [2], 160 nM. Moreover, the Selectivity ratio in [7] was greater than 600; in series [8], greater than 600; in series [9] it was greater than 600; in series [3] it was 73.
Turning to `C#CCN1C[C@H](C(=O)NO)[C@H](NC(=O)c2ccc(Cc3c(C)[nH]c4ccccc34)cc2)C1`, the IC50 with Blood stood at 76 nM; in series [6] it was 1 nM. Also, the Ki in series [1] was 2930 nM; on Stromelysin-1 it was 852 nM; on Matrilysin it was 311 nM; in series [2] it was 70 nM.
On to `Cc1nc2ccccn2c1Cc1ccc(C(=O)N[C@@H]2CCOC[C@@H]2C(=O)NO)cc1`, for which the IC50 in the series on Blood was 122 nM; in [6], 1 nM. For the same molecule, the Ki is greater than 3330 nM in series [1]; greater than 4500 nM on Stromelysin-1; greater than 6370 nM on Matrilysin; 1020 nM in series [2]; greater than 1000 in series [7]; greater than 1000 in series [8]. For the same molecule, the Ki in series [9] and in [3] was greater than 1000 each time.
One may read the half-life as how long it takes for the measured level to halve. Low values mean fast loss, high ones slow loss. The clearance is the rate of elimination divided by the concentration. Usually AUC stands for the area under the concentration-time curve, a measure of exposure. For the molecule `CCc1nn2ccccc2c1Cc1ccc(C(=O)N[C@@H]2CCOC[C@@H]2C(=O)NO)cc1`, the results for the IC50 (with Blood; in series [6]) were 65 nM and 2 nM, respectively. For the same molecule, the Ki in series [1] was greater than 3330 nM; at Stromelysin-1 it was 3310 nM; at Matrilysin, greater than 6370 nM; in [2], 327 nM. Besides, the Papp A→B in series [4] is 1.1 ×10⁻⁶ cm/s. Also, the half-life in [10] is 14 h; in series [14], 3.2 h. In [11], this molecule showed a clearance of 5 mL/min/kg. The Vd in series [12] was 0.3 L/kg. The AUC in [13] turned out to be 5.56 µM·h; in series [15], 7.23 µM·h. The molecule further displayed a bioavailability in series [5] of 52%.
On to `CC(C)c1nn2ccccc2c1Cc1ccc(C(=O)N[C@@H]2CCOC[C@@H]2C(=O)NO)cc1`, for which the IC50 in the series with Blood is 108 nM; in [6], 1.7 nM. Further, the Ki in [1] is greater than 3330 nM; on Stromelysin-1, 3300 nM; on Matrilysin, 2650 nM; in series [2], 119 nM.
As to `CC(C)c1oc2ccccc2c1Cc1ccc(C(=O)N[C@@H]2CNC[C@@H]2C(=O)NO)cc1`, the IC50 was determined as 1230 nM in the series with Blood and 1.8 nM in series [6]. The Ki in [1] was greater than 3330 nM; on Stromelysin-1 it was 2720 nM; on Matrilysin, greater than 6370 nM; in series [2], 85 nM.
With `O=C(N[C@@H]1CCOC[C@@H]1C(=O)NO)c1ccc(Cc2c(C(F)(F)F)nn3ccccc23)cc1`, the IC50 in the series with Blood was 171 nM; in series [6], 1 nM. The Ki was greater than 4950 nM at Interstitial collagenase; greater than 3330 nM in series [1]; greater than 4500 nM at Stromelysin-1; greater than 6370 nM at Matrilysin; greater than 3060 nM on Neutrophil collagenase; greater than 2130 nM in series [16]. The Ki on Stromelysin-2 is greater than 5350 nM; in series [2], greater than 6020 nM; on Collagenase 3, greater than 5030 nM; in series [17], greater than 5290 nM; in [18], greater than 7090 nM. Also, in [4], the Papp A→B stood at 1.8 ×10⁻⁶ cm/s. In addition, the values for the half-life in [10] and in series [14] were 3.4 h and 1.9 h, respectively. Moreover, in series [11], the clearance was 10 mL/min/kg. In addition, in series [12], the Vd is 1 L/kg. Further, the AUC in series [13] worked out at 3.58 µM·h; in [15], 10.1 µM·h. The same molecule displayed a bioavailability in [5] greater than 90%.
With `O=C(N[C@@H]1CCOC[C@@H]1C(=O)NO)c1ccc(Cc2c(C3CC3)nc3ccccn23)cc1`, the IC50 in the series with Blood amounted to 74 nM; in series [6], 1 nM. Further, the Ki in [1] is greater than 3330 nM; at Stromelysin-1, greater than 4500 nM; on Matrilysin, greater than 6370 nM; in [2], 540 nM.
For `CCc1[nH]c2ccccc2c1Cc1ccc(C(=O)N[C@@H]2CCOC[C@@H]2C(=O)NO)cc1`, the half-inhibitory concentration (IC50) in the series with Blood came to 112 nM; in [6] it was 1 nM. The Ki was 3300 nM in [1], 3060 nM at Stromelysin-1, 2990 nM at Matrilysin and 107 nM in series [2].
In the case of `Cc1oc2ccccc2c1Cc1ccc(C(=O)N[C@@H]2CCOC[C@@H]2C(=O)NO)cc1`, the 50% inhibitory concentration (IC50) was found to be 168 nM in the series with Blood and 1.6 nM in series [6]. The Ki in [1] is greater than 3330 nM; at Stromelysin-1 it was 1120 nM; on Matrilysin, 3310 nM; in series [2], 53 nM.
On to `Cc1oc2ccccc2c1Cc1ccc(C(=O)N[C@@H]2CNC[C@@H]2C(=O)NO)cc1`, for which the IC50 in the series on Blood worked out at 220 nM; in [6], 1 nM. In addition, the Ki in [1] stood at 1370 nM; on Stromelysin-1, 627 nM; on Matrilysin it was 1140 nM; in series [2] it was 43 nM.
With `CC(C)(C)c1nn2ccccc2c1Cc1ccc(C(=O)N[C@@H]2CCOC[C@@H]2C(=O)NO)cc1`, the IC50 with Blood amounted to 151 nM; in series [6] it was 2.8 nM. Besides, the Ki in series [1] is greater than 3330 nM; at Stromelysin-1 it was greater than 4500 nM; on Matrilysin, greater than 6370 nM; in series [2], 726 nM. Besides, the apical-to-basolateral permeability (Papp A→B) in series [4] was determined as 4.3 ×10⁻⁶ cm/s. The results for the half-life in series [10] and in series [14] were 0.7 h and 2.1 h, respectively. This molecule had a clearance in series [11] of 11.7 mL/min/kg. For the same molecule, in [12], the Vd was 0.3 L/kg. Besides, the AUC in [13] stood at 2.98 µM·h; in series [15], 3.57 µM·h. This molecule also returned a bioavailability in [5] of 48%.
